This is an account of results in ChEMBL document CHEMBL1201862, “PubChem BioAssay data set” (2004).

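Step 1: Grow cells in 96-well plates. Step 2: Expose to compound for 48 hours at 5 concentrations. Step 3: Interpolate endpoints linearly; if unreached, use highest concentration. GI50 marks 50% less growth.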 Calls of active or inactive are those of the source. No stated cut-off is given here; in the data, active = GI50 up to about 1.1 µM and inactive = higher. Where only a bound is given, the exact number is not on record here.

Some test systems named below: IGROV-1; M14; SF-539; HOP-92; RPMI-8226; KM12; LOX IMVI; MDA-MB-231; CAKI-1; SR; NCI-H226; HT-29; A498; TK-10; OVCAR-3; U-251; SK-MEL-28; COLO 205; CCRF-CEM.
What all share (test): NCI anticancer screen, dose series, 48 h

On to `COc1cc(/C=C\c2nnc(/C=C\c3ccc(O)c(OC)c3)s2)ccc1O`, for which the GI50 in the experiment on IGROV-1 was 3.78 µM (inactive); in the experiment with M14, 2.11 µM (inactive); with SF-539, 2.44 µM (inactive); in the experiment with HOP-92 it was 4.79 µM (inactive); in the experiment with RPMI-8226 it was 1.98 µM (inactive); in the experiment on KM12, 2.2 µM (inactive). For the same molecule, the GI50 with LOX IMVI was 2.59 µM (inactive); in the experiment with MDA-MB-231, 4.94 µM (inactive); in the experiment on CAKI-1 it was 4.62 µM (inactive); with SR, 1.24 µM (inactive); in the experiment with NCI-H226 it was 7.28 µM (inactive); with HT-29, 7.31 µM (inactive). Moreover, the GI50 was 2.27 µM (inactive) in the experiment on A498; 4.89 µM (inactive) with TK-10; 1.91 µM (inactive) in the experiment on OVCAR-3; 3.06 µM (inactive) in the experiment on U-251; 5.35 µM (inactive) with SK-MEL-28; 13.8 µM (inactive) in the experiment on COLO 205. Also, the GI50 with CCRF-CEM was 2.18 µM (inactive).

Turning to `[N-]=[N+]=NCC1OC(n2cnc3c(N)ncnc32)C2OC12` (centres undefined), the GI50 in the experiment on IGROV-1, in the experiment on M14, in the experiment on SF-539, in the experiment with HOP-92, with RPMI-8226 and in the experiment on KM12 was > 100 µM (inactive) in each case. Moreover, the GI50 in the experiment on LOX IMVI, in the experiment with MDA-MB-231, in the experiment with CAKI-1, in the experiment on SR, in the experiment on NCI-H226 and in the experiment with HT-29 was > 100 µM (inactive) throughout. Also, the GI50 in the experiment with A498, in the experiment with TK-10, in the experiment with OVCAR-3, in the experiment on U-251, with SK-MEL-28 and in the experiment with COLO 205 was > 100 µM (inactive) in each case. Also, the GI50 in the experiment on CCRF-CEM is > 100 µM (inactive).

As to `Cc1c(/C=N/NC(=S)N2CCCCC2)c(=O)n(-c2ccccc2)n1C`, the GI50 is > 100 µM (inactive) in the experiment with IGROV-1; 61.9 µM (inactive) with M14; > 100 µM (inactive) with SF-539; > 100 µM (inactive) with HOP-92; 67.5 µM (inactive) in the experiment on RPMI-8226; 97.1 µM (inactive) in the experiment with KM12. Also, the GI50 was 70.5 µM (inactive) in the experiment on LOX IMVI; > 100 µM (inactive) in the experiment on MDA-MB-231; 77.1 µM (inactive) in the experiment with CAKI-1; > 100 µM (inactive) with SR; > 100 µM (inactive) in the experiment with NCI-H226; 73.8 µM (inactive) in the experiment with HT-29. The GI50 was 24.3 µM (inactive) in the experiment on A498; 61.2 µM (inactive) in the experiment with TK-10; 48.4 µM (inactive) in the experiment on OVCAR-3; 83.2 µM (inactive) in the experiment on U-251; 75.2 µM (inactive) in the experiment with SK-MEL-28; 29.9 µM (inactive) in the experiment with COLO 205. In addition, in the experiment on CCRF-CEM, the GI50 was 23.2 µM (inactive).

As for `COc1cccc2c1C(=O)C1=C(C2=O)C(O)CC(C)(C)O1` (centres undefined), the GI50 was 31.6 µM (inactive) in the experiment on IGROV-1; 54.6 µM (inactive) with M14; 37.9 µM (inactive) in the experiment on SF-539; 53.2 µM (inactive) in the experiment on HOP-92; 22.3 µM (inactive) in the experiment with RPMI-8226; 27.9 µM (inactive) in the experiment on KM12. For the same molecule, the GI50 with LOX IMVI was 24.3 µM (inactive); in the experiment on MDA-MB-231 it was 25.6 µM (inactive); in the experiment on CAKI-1 it was 50.7 µM (inactive); in the experiment on SR it was 16.3 µM (inactive); in the experiment with NCI-H226, > 100 µM (inactive); in the experiment with HT-29, 37.7 µM (inactive). Moreover, the GI50 in the experiment with A498 is > 100 µM (inactive); with TK-10, > 100 µM (inactive); in the experiment with OVCAR-3, 13.1 µM (inactive); in the experiment with U-251, 32.4 µM (inactive); in the experiment with SK-MEL-28, > 100 µM (inactive); with COLO 205, 23.5 µM (inactive). Further, the GI50 with CCRF-CEM is 23.4 µM (inactive).

Take `N#Cc1c(Cl)c(C=O)c(=O)n2c1[nH]c1ccccc12`: the GI50 in the experiment with IGROV-1 was > 100 µM (inactive); in the experiment with M14, 28.4 µM (inactive); in the experiment with SF-539, 35.9 µM (inactive); in the experiment with HOP-92, 24.2 µM (inactive); in the experiment with RPMI-8226, > 100 µM (inactive); in the experiment on KM12 it was 47.3 µM (inactive). The GI50 was 33.7 µM (inactive) in the experiment on LOX IMVI; 31.8 µM (inactive) in the experiment on MDA-MB-231; 40.3 µM (inactive) in the experiment on CAKI-1; 10 µM (inactive) in the experiment on SR; 24.7 µM (inactive) in the experiment on NCI-H226; 36 µM (inactive) in the experiment on HT-29. Moreover, the GI50 in the experiment with A498 was 31.7 µM (inactive); in the experiment on TK-10, > 100 µM (inactive); in the experiment with OVCAR-3 it was 20.1 µM (inactive); in the experiment with U-251 it was 67 µM (inactive); in the experiment on SK-MEL-28, 63.1 µM (inactive); with COLO 205, 59.7 µM (inactive). In addition, the GI50 with CCRF-CEM was 40.4 µM (inactive).

With `C/C(=N\NC(=S)N1CCN(c2ccccn2)CC1)c1cccc2cccnc12`, the GI50 was 5.79 µM (inactive) with IGROV-1; 5.15 µM (inactive) in the experiment with M14; 4.11 µM (inactive) in the experiment with SF-539; 3.98 µM (inactive) in the experiment with HOP-92; 2.29 µM (inactive) with RPMI-8226; 3.9 µM (inactive) in the experiment with KM12. For the same molecule, the GI50 in the experiment with LOX IMVI is 3.59 µM (inactive); in the experiment with MDA-MB-231, 4.42 µM (inactive); in the experiment with CAKI-1, 6.32 µM (inactive); in the experiment with SR, 0.859 µM (active); with NCI-H226, 5.77 µM (inactive); with HT-29 it was 3.61 µM (inactive). Also, the GI50 in the experiment on A498 is 12 µM (inactive); in the experiment on TK-10, 6.31 µM (inactive); in the experiment on OVCAR-3 it was 3.44 µM (inactive); with U-251 it was 4.12 µM (inactive); in the experiment on SK-MEL-28 it was 6.58 µM (inactive); in the experiment with COLO 205, 3.02 µM (inactive). The GI50 in the experiment on CCRF-CEM was 2.18 µM (inactive).

Regarding `CN(C)N1C(=C(C#N)C#N)C(c2ccccc2)CC1C#N` (centres undefined), the GI50 with IGROV-1, in the experiment on M14, with SF-539, with HOP-92, with RPMI-8226 and in the experiment with KM12 was > 100 µM (inactive) in each case. Besides, the GI50 in the experiment on LOX IMVI is > 100 µM (inactive); with MDA-MB-231 it was > 100 µM (inactive); in the experiment with CAKI-1 it was > 100 µM (inactive); in the experiment with SR it was > 10 µM (inactive); in the experiment on NCI-H226, > 100 µM (inactive); with HT-29 it was > 100 µM (inactive). In addition, the GI50 in the experiment on A498, with TK-10, in the experiment with U-251, in the experiment with SK-MEL-28, with COLO 205 and in the experiment with CCRF-CEM was > 100 µM (inactive) each time.

Consider `C/C1=C/C(C)CC(C)OC(=O)C(C)NC(=O)C(Cc2ccc(O)c(I)c2)N(C)C(=O)C(C)NC(=O)C(C)C1` (centres undefined), for which the GI50 in the experiment with IGROV-1 was < 0.01 µM (active); in the experiment on M14 it was < 0.015 µM (active); in the experiment on SF-539, < 0.01 µM (active); in the experiment with HOP-92, < 0.0134 µM (active); in the experiment with RPMI-8226, < 0.01 µM (active); in the experiment on KM12, < 0.01 µM (active). Moreover, the GI50 was < 0.01 µM (active) in the experiment on LOX IMVI; < 0.01 µM (active) in the experiment on MDA-MB-231; < 0.01 µM (active) in the experiment with CAKI-1; < 0.01 µM (active) in the experiment with SR; < 0.0363 µM (active) in the experiment on NCI-H226; < 0.01 µM (active) in the experiment with HT-29. For the same molecule, the GI50 with A498 was < 0.01 µM (active); in the experiment with TK-10, < 0.01 µM (active); in the experiment with OVCAR-3, < 0.01 µM (active); in the experiment with U-251 it was < 0.01 µM (active); with SK-MEL-28, 0.0314 µM (active); with COLO 205, < 0.01 µM (active). Further, the GI50 with CCRF-CEM is < 0.01 µM (active).

As for `CN(/N=C\c1ccc2ccccc2c1)C1=NCCCN1`, the GI50 is 4.56 µM (inactive) with IGROV-1; 19.8 µM (inactive) in the experiment on SF-539; 2.11 µM (inactive) with HOP-92; 14.9 µM (inactive) in the experiment on RPMI-8226; 15 µM (inactive) with KM12; 7.41 µM (inactive) with LOX IMVI. For the same molecule, the GI50 was 15.6 µM (inactive) in the experiment with MDA-MB-231; 4.88 µM (inactive) with CAKI-1; 13.1 µM (inactive) in the experiment on SR; 17 µM (inactive) in the experiment with NCI-H226; 12 µM (inactive) in the experiment on HT-29; 13.6 µM (inactive) in the experiment on A498. Besides, the GI50 with TK-10 was 14 µM (inactive); with OVCAR-3, 18.9 µM (inactive); in the experiment with U-251, 20 µM (inactive); in the experiment with SK-MEL-28 it was 14.6 µM (inactive); with COLO 205, 12.7 µM (inactive); with CCRF-CEM, 12.7 µM (inactive).

As for `NC(Cc1ccc(OCc2ccccc2)cn1)C(=O)OCc1ccccc1` (centres undefined), the GI50 with IGROV-1, in the experiment on SF-539, with HOP-92, in the experiment on RPMI-8226, in the experiment with KM12 and with LOX IMVI was > 100 µM (inactive) each time. The GI50 with MDA-MB-231, in the experiment with CAKI-1, with SR, with NCI-H226, in the experiment on HT-29 and in the experiment on A498 was > 100 µM (inactive) throughout. Also, the GI50 in the experiment on TK-10, in the experiment on OVCAR-3, with U-251, in the experiment with SK-MEL-28, with COLO 205 and in the experiment with CCRF-CEM was > 100 µM (inactive) each time.

On to `C=C1C(=O)O[C@H]2/C=C(/C)C3=CC(=O)[C@@](C)(C[C@@H](OC(=O)/C(C)=C\C)C12)O3` (some centres undefined), for which the GI50 in the experiment with IGROV-1 is 0.971 µM (active); with M14 it was 1.85 µM (inactive); in the experiment on SF-539, 1.93 µM (inactive); in the experiment on HOP-92, 0.703 µM (active); in the experiment with RPMI-8226, 0.0589 µM (active); in the experiment on KM12 it was 2.86 µM (inactive). Moreover, the GI50 in the experiment on LOX IMVI was 0.272 µM (active); in the experiment on MDA-MB-231, 3.05 µM (inactive); with CAKI-1, 0.185 µM (active); in the experiment with SR, 0.083 µM (active); in the experiment with NCI-H226, 2.59 µM (inactive); in the experiment on HT-29 it was 0.265 µM (active). For the same molecule, the GI50 in the experiment with A498 is 5.2 µM (inactive); in the experiment on U-251 it was 2.43 µM (inactive); in the experiment with SK-MEL-28 it was 0.708 µM (active); in the experiment with COLO 205 it was 0.284 µM (active); with CCRF-CEM, 0.0953 µM (active).
